Assay results published in US9233976B2, “Berbamine derivatives” (CITY OF HOPE, priority 2009, dated 2016).
Blank lines part the entries; values can stand above or below the compound they belong to.

How the values were obtained:
[1] = test system: DU145 prostate cancer cell line; assay: MTS cell viability assay in DU145 cells; type: cell-based; conditions: DU145, 48 h
Method: (§1) IC50 of values of berbamine derivatives were determined in cancer cell lines DU145 and A2058 respectively. DU145 and A2058 cells (5,000 cells/well) were treated with berbamine derivatives in a dose-dependent manner (0.1 to 20 μM in 1% DMSO for 48 h. Then, MTS assay for cell viability were carried out to determine the IC50 values. Four samples were tested for each berbamine derivatives at each concentration in each cell line, and the averaged data were shown in Table 1 and FIGS. 1-8.

[2] = test system: A2058 human melanoma cell line; assay: MTS cell viability assay in A2058 cells; type: cell-based; conditions: A2058, 48 h
Method: as §1

[3] = test system: Imatinib-resistant leukemia (K562/ADR) cells; assay: Cell viability in imatinib-resistant leukemia cells; type: cell-based
Method: Imatinib-resistant leukemia (K562/ADR) cells (5,000 cells/well) were treated with different concentrations (0.6-40 μM in DMSO) of BA #1, BA #3 and BA #4 respectively for 48 hours and cell viability was measured.

[4] = test system: Human normal dermal fibroblast (NHDF) cells; assay: Cell viability in normal dermal fibroblasts; type: cell-based
[5] = test system: human erythroleukemia HEL (homozygous JAK2 V617F mutation) cells; assay: MTS cell viability assay in HEL cells; type: cell-based; conditions: HEL Jak2 V617 mutation, 48 h
Method: HEL Jak2 V617 mutation cells (10,000 cells/well) were treated with different concentration (0.1 μM to 20 μM in 1% DMSO of berbamine, BA #3, and BA #10 respectively for 48 h. Then, MTS assay for cell viability were carried out to determine the IC50 values. Four samples were tested for each test compound at each concentration, and the averaged data were shown in Table 3 and FIGS. 10-11.

Tyk2 kinase = Tyk2 kinase (Homo sapiens, UniProt P29597); assay: In vitro Tyk2 kinase assay with peptide substrate; type: biochemical; conditions: activated recombinant protein with peptide substrate and ATP
Sequence of Tyk2 kinase (P29597 whole entry): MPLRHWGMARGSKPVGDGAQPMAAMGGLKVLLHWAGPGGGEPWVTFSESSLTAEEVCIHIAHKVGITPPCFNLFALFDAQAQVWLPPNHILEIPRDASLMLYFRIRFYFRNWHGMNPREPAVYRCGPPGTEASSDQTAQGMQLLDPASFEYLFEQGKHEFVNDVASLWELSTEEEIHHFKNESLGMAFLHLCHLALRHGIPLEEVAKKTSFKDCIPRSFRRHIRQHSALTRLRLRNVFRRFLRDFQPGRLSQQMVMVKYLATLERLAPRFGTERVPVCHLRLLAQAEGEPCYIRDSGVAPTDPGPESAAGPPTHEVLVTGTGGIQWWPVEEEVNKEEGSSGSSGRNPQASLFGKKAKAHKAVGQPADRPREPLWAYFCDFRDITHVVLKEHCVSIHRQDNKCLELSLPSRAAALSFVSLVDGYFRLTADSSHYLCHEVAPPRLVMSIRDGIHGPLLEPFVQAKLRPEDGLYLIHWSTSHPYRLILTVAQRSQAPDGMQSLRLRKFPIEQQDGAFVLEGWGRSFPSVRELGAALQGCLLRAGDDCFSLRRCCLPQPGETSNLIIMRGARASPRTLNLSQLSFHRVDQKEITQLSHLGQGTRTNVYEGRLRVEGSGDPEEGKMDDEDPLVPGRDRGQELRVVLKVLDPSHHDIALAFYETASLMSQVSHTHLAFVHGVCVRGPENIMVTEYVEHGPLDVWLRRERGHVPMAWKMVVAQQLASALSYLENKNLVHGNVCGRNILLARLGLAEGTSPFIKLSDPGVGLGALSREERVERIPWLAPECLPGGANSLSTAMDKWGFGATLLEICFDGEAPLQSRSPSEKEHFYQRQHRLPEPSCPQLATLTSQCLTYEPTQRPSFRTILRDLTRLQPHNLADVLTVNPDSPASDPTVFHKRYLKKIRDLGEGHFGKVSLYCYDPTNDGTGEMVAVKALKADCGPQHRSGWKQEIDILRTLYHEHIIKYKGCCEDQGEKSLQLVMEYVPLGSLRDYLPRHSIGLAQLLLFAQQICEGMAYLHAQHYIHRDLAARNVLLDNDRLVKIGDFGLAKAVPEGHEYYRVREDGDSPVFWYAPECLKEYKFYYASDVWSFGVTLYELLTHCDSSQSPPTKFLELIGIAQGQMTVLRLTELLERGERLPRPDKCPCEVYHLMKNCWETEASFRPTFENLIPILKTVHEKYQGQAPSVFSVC
Description: (§2) To determine whether BA #3 inhibits activities of Src kinase, Jak2 kinase, Jak1 kinase and Tyk2 kinase in vitro, activated recombinant proteins were mixed with peptide substrates and ATP in the absence or the presence of BA #3. […] However, BA #3 reduced Jak2 autophosphorylation kinase activity at Tyr1007/1008 sites in vitro in the reaction of mixture of non-activated recombinant Jak2 protein and ATP in the absence of substrates (FIG. 19).

Src kinase = Src kinase (Homo sapiens, UniProt P12931); assay: In vitro Src kinase assay with peptide substrate; type: biochemical; conditions: activated recombinant protein with peptide substrate and ATP
Sequence of Src kinase (P12931 whole entry): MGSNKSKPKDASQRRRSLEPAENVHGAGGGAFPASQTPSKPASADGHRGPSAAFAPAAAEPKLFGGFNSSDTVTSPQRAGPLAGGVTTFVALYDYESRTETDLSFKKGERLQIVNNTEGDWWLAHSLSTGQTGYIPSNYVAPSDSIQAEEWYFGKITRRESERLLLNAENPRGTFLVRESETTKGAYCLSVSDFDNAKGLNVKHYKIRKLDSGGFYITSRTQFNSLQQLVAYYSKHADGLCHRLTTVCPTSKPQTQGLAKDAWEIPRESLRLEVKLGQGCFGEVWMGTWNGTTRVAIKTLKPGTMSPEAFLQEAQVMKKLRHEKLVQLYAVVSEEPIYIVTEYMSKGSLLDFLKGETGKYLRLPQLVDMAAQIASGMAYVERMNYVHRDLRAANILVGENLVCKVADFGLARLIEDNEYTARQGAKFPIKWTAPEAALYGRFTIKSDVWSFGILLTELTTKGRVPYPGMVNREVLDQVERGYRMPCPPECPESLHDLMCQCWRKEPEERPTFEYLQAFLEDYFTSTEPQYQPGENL
Description: as §2

Mcl-1 = assay: Western blot of Mcl-1 protein; type: cell-based; conditions: 5 μM, 24 h
Method: (§3) To determine whether BA #3 down-regulates Stat3 downstream anti-apototic proteins Mcl-1 and Bcl-xL, cells were treated with BA #3 in a dose-dependent manner for 24 h. Western blots were performed with specific antibodies to Mcl-1 and Bcl-xL.

melanoma SK-MEL-5 cells = assay: MTS cell viability assay in SK-MEL-5 cells; type: cell-based; conditions: Homo sapiens, SK-MEL-5, 48 h
Method: (§4) Each type of cells (5,000 or 10,000 cells/well) were treated with different concentration (0.1 μM to 20 μM in 1% DMSO of berbamine and BA #3 respectively for 48 h. Then, MTS assay for cell viability were carried out to determine the IC50 values. Four samples were tested for each test compound at each concentration for each type of cells, and the averaged data were shown in Table 4 and FIGS. 12-13.

Jak1 kinase = Jak1 kinase (Homo sapiens, UniProt P23458); assay: In vitro Jak1 kinase assay with peptide substrate; type: biochemical; conditions: activated recombinant protein with peptide substrate and ATP
Sequence of Jak1 kinase (P23458 whole entry): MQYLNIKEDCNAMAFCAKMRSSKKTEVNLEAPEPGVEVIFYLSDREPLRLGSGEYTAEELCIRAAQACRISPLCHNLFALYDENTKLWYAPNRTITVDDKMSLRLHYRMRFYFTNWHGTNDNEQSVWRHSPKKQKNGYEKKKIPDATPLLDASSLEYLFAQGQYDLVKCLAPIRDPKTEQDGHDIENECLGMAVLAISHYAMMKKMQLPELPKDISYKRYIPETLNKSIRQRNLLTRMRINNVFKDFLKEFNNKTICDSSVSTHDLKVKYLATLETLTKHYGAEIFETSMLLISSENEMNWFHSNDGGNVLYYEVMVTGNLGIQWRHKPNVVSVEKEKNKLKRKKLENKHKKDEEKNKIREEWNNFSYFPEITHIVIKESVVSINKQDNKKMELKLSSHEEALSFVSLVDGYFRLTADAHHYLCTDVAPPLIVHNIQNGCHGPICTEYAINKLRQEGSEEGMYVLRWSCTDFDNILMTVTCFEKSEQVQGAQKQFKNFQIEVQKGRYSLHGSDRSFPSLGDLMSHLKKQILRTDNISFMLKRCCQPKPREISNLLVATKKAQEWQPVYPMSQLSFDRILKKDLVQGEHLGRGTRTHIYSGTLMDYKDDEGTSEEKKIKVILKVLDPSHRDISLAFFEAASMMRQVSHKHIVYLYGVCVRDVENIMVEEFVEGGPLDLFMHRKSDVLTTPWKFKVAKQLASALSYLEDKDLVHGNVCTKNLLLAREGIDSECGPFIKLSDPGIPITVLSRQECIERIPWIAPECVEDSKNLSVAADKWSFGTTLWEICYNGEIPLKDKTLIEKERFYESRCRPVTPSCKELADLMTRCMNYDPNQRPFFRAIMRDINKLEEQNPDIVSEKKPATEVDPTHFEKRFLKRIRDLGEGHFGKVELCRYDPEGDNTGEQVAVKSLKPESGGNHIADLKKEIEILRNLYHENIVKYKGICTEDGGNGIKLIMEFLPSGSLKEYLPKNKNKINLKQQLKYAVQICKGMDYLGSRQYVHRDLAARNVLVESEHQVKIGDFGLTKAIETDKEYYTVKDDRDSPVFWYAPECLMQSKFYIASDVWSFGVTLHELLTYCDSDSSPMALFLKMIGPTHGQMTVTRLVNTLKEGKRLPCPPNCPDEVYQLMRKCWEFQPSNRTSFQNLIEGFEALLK
Description: as §2

Jak2/Stat3 signaling [6] = assay: Western blot of Jak2/Stat3 signaling in erythroleukemia HEL cells; type: cell-based; conditions: 0-10 μM, 4 hour
Method: (§5) To determine whether BA #3 block Jak2/Stat3 or Src/Stat3 signaling pathway, A2058 melanoma (A and B) and erythroleukemia HEL cells were treated with BA #3 in a dose- or time-dependent manner. Western blots were performed with specific antibodies to p-Jak2, p-Src, p-Stat3, p-AKT, Jak2, Src, Stat3 and AKT.

[7] = test system: multiple myeloma (U266) cells; assay: MTS cell viability assay in U266 cells; type: cell-based; conditions: Homo sapiens, U-266, U266, 48 h
Method: as §4

[8] = biological target: non-activated recombinant Jak2 protein (autophosphorylation at Tyr1007/1008) (Homo sapiens, UniProt O60674); assay: In vitro Jak2 autophosphorylation kinase assay; type: biochemical; conditions: non-activated recombinant Jak2 and ATP, no substrate, densitometry; read-out: IC50 for inhibition of autophosphorylation kinase activity
Sequence of non-activated recombinant Jak2 protein (autophosphorylation at Tyr1007/1008) (O60674 whole entry): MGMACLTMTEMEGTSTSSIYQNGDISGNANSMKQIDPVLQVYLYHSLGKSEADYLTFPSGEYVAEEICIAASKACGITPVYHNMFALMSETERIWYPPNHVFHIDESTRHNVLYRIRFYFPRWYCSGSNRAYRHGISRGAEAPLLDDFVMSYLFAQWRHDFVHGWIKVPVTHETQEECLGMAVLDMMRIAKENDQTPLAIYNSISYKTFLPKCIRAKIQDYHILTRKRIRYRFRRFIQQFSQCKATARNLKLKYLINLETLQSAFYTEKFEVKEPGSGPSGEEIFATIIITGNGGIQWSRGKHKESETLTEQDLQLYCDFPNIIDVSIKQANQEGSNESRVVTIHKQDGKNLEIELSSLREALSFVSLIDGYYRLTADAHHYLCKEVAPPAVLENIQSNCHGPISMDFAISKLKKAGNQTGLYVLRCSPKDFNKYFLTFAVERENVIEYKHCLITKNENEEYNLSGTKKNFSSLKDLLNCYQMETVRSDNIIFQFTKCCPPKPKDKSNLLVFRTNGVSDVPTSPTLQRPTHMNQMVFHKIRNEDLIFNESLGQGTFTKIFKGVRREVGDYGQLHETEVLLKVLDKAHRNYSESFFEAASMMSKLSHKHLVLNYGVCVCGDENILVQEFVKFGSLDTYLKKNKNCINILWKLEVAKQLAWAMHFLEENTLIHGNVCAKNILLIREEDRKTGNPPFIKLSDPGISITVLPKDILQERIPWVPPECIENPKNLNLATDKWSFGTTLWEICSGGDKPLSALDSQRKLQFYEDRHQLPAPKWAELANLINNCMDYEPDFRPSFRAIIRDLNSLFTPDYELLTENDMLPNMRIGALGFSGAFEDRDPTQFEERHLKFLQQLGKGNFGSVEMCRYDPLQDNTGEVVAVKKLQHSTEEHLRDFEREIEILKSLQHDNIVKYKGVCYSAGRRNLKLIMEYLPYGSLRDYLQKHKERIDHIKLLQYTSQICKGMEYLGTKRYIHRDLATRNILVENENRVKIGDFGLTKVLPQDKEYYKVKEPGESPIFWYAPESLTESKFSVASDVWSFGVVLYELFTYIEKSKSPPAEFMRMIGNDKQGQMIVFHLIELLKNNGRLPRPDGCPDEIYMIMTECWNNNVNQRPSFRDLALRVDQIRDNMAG
Description: as §2, with “FIG. 19. In vitro Jak2 autophosphorylation kinase assay of BA #3. A) Autophosphorylation of Jak2 at Tyr1007/1008 was required for its catalytic activity, non-activated recombinant Jak2 protein was mixed with ATP in the absence or presence of BA #3; B) inhibitory activity of Jak2 autophosphorylation based on the densitometry of FIG. 19(A). To” for “To”

Jak2/Stat3 signaling [9] = assay: Western blot of Jak2/Stat3 signaling in A2058 melanoma cells; type: cell-based; conditions: 0-10 μM for 4 hour or 10 μM for 0-24 hour
Method: as §5

melanoma G361 cells = assay: MTS cell viability assay in G361 cells; type: cell-based; conditions: Homo sapiens, G-361, G361, 48 h
Method: as §4

Jak2 kinase = Jak2 kinase (Homo sapiens, UniProt O60674); assay: In vitro Jak2 kinase assay with peptide substrate; type: biochemical; conditions: activated recombinant protein with peptide substrate and ATP
Sequence of Jak2 kinase (O60674 whole entry): as above
Description: as §2

[10] = test system: ovarian cancer OVCAR5 cells; assay: MTS cell viability assay in OVCAR5 cells; type: cell-based; conditions: Homo sapiens, OVCAR-5, OVCAR5, 48 h
Method: as §4

[11] = test system: ovarian cancer SKOV3 cells; assay: MTS cell viability assay in SKOV3 cells; type: cell-based; conditions: Homo sapiens, SK-OV-3, SKOV3, 48 h
Method: as §4

[12] = test system: human acute lymphoblastic leukemia (Molt4) cells; assay: MTS cell viability assay in Molt4 cells; type: cell-based; conditions: MOLT-4, Molt4, 48 h
Method: as §4

[13] = test system: pancreatic cancer (PANC-1) cells; assay: MTS cell viability assay in PANC-1 cells; type: cell-based; conditions: Homo sapiens, PANC-1, 48 h
Method: as §4

[14] = Maximum tolerated dose (MTD) study, body weight; type: in vivo; conditions: mice, oral, 50 mg/kg and 100 mg/kg every day for 5 days
Method: Three test groups of mice (four mice per group) were orally administrated with vehicle only, 50 mg/kg BA #3 and 100 mg/kg BA #3 respectively every day for 5 days. Mice were weighed every day. Two sets of experiments were carried out (FIGS. 22(A) and (B)).

melanoma A375 cells = assay: MTS cell viability assay in A375 cells; type: cell-based; conditions: Homo sapiens, A-375, A375, 48 h
Method: as §4

Bcl-xL = assay: Western blot of Bcl-xL protein; type: cell-based; conditions: 5 μM, 24 h
Method: as §3

A2058 cells = assay: Annexin V-FITC apoptosis assay; type: cell-based; conditions: 0-10 μM, 48 hours
Method: A2058 cells were treated with BA #3 in a dose dependent manner (0-10 μM) for 48 hours.

melanoma SK-MEL-28 cells = assay: MTS cell viability assay in SK-MEL-28 cells; type: cell-based; conditions: Homo sapiens, SK-MEL-28, 48 h
Method: as §4

[15] = test system: human acute lymphocytic leukemia (Reh) cells; assay: MTS cell viability assay in Reh cells; type: cell-based; conditions: 48 h
Method: as §4

cancer cell lines = assay: IC50 in cancer cell lines tested (summary statement); type: cell-based; conditions: summary over cell lines tested
Description: For example, berbamine derivatives (e.g. BA #3) show significant (at least 10-fold) improvement in activity over berbamine in cancer cell lines tested (e.g. K562/ADR). Berbamine derivatives (e.g. BA #3) also show inhibition of Jak2/Stat3 signaling in cancer cell lines (e.g. A2058, erythroleukemia HEL cells), and show down-regulation of Mcl-1 and Bcl-xL proteins.

- IC50 ([1]; Homo sapiens, DU-145, 48 h): > 20 µM
- IC50 ([2]; Homo sapiens): > 20 µM
Compound: O=C1c2ccccc2C(=O)N1CCCOc1ccccc1 [Phthaloyl derivative, reference compound]

- IC50 ([3]; 48 hours): 6.4 µM
- IC50 [1]: 9.4 µM
- IC50 [2]: 7.4 µM
Compound: COc1cc2c3cc1Oc1c(OC)c(OC)cc4c1[C@@H](Cc1ccc(OCCCNC(=O)c5cncs5)c(c1)Oc1ccc(cc1)C[C@@H]3N(C)CC2)N(C)CC4 [BA #1]

- IC50 [1]: 5.6 µM
- IC50 [2]: 3.3 µM
Compound: COc1cc2c3cc1Oc1c(OC)c(OC)cc4c1[C@@H](Cc1ccc(OCCCNC(=O)c5cncs5)c(c1)Oc1ccc(cc1)C[C@@H]3N(C)CC2)N(C)CC4 [BA #12]
- IC50 ([4]; 48 hours): 9.2 µM

- IC50 [1]: 6.6 µM
- IC50 [2]: 7.1 µM
Compound: COc1cc2c3cc1Oc1c(OC)c(OC)cc4c1[C@@H](Cc1ccc(OCCCNC(=O)c5cncs5)c(c1)Oc1ccc(cc1)C[C@@H]3N(C)CC2)N(C)CC4 [BA #8]

- IC50 [1]: 7.7 µM
- IC50 [2]: 8.1 µM
Compound: COc1cc2c3cc1Oc1c(OC)c(OC)cc4c1[C@@H](Cc1ccc(OCCCNC(=O)c5cncs5)c(c1)Oc1ccc(cc1)C[C@@H]3N(C)CC2)N(C)CC4 [BA #9]

- IC50 [1]: 13.6 µM
- IC50 [2]: 8.2 µM
Compound: COc1cc2c3cc1Oc1c(OC)c(OC)cc4c1[C@@H](Cc1ccc(OCCCNC(=O)c5cncs5)c(c1)Oc1ccc(cc1)C[C@@H]3N(C)CC2)N(C)CC4 [BA #13]

- IC50 [5]: 2.8 µM
- IC50 [1]: 3.7 µM
- IC50 [2]: 3.4 µM
Compound: COc1cc2c3cc1Oc1c(OC)c(OC)cc4c1[C@@H](Cc1ccc(OCCCNC(=O)c5cncs5)c(c1)Oc1ccc(cc1)C[C@@H]3N(C)CC2)N(C)CC4 [BA #10]
- IC50 ([4]; Homo sapiens, 48 h): 9.4 µM

- IC50 ([3]; 48 hours): 3 µM
- IC50 [1]: 15.5 µM
- IC50 [2]: 14.3 µM
Compound: COc1cc2c3cc1Oc1c(OC)c(OC)cc4c1[C@@H](Cc1ccc(OCCCNC(=O)c5cncs5)c(c1)Oc1ccc(cc1)C[C@@H]3N(C)CC2)N(C)CC4 [BA #4]

- IC50 [1]: 15.2 µM
- IC50 [2]: 14.6 µM
Compound: COc1cc2c3cc1Oc1c(OC)c(OC)cc4c1[C@@H](Cc1ccc(OCCCNC(=O)c5cncs5)c(c1)Oc1ccc(cc1)C[C@@H]3N(C)CC2)N(C)CC4 [BA #2]

- IC50 [1]: 12.3 µM
- IC50 [2]: 8.3 µM
Compound: COc1cc2c3cc1Oc1c(OC)c(OC)cc4c1[C@@H](Cc1ccc(OCCCNC(=O)c5cncs5)c(c1)Oc1ccc(cc1)C[C@@H]3N(C)CC2)N(C)CC4 [BA #11]

Compound: COc1cc2c3cc1Oc1c(OC)c(OC)cc4c1[C@@H](Cc1ccc(OCCCN5C(=O)c6ccccc6C5=O)c(c1)Oc1ccc(cc1)C[C@@H]3N(C)CC2)N(C)CC4 [BA #3]
- inhibition of Tyk2 kinase activity (Tyk2 kinase): did not inhibit
- inhibition of Src kinase activity (Src kinase): did not inhibit
- Mcl-1 protein level (Mcl-1): down-regulated
- IC50 (melanoma SK-MEL-5 cells): 3.3 µM
- IC50 [5]: 3.2 µM
- inhibition of Jak1 kinase activity (Jak1 kinase): did not inhibit
- Jak2/Stat3 signaling (phosphorylations of Jak, Src, Stat3 and AKT) (Jak2/Stat3 signaling [6]): inhibited Jak2/Stat3 signaling
- IC50 [7]: 6.7 µM
- IC50 [8]: 0.69 µM
- Jak2/Stat3 signaling (phosphorylations of Jak, Src, Stat3 and AKT) (Jak2/Stat3 signaling [9]): inhibited Jak2/Stat3 signaling
- improvement in activity over berbamine [3]: at least 10 fold
- IC50 ([3]; Homo sapiens, K562/Adr, 48 h): 1.1 µM
- IC50 (melanoma G361 cells): 3.1 µM
- IC50 ([4]; Homo sapiens, 48 h): 7.5 µM
- inhibition of Jak2 kinase activity (Jak2 kinase): did not inhibit
- IC50 [10]: 2.8 µM
- IC50 [11]: 3.9 µM
- IC50 ([1]; Homo sapiens, DU-145, 48 h): 3.4 µM
- IC50 [12]: 3.9 µM
- IC50 [13]: 6.4 µM
- body weight versus vehicle [14]: no significant weight differences
- IC50 ([2]; Homo sapiens): 2.9 µM
- IC50 (melanoma A375 cells): 3.7 µM
- Bcl-xL protein level (Bcl-xL): down-regulated
- apoptosis (Annexin V-FITC) (A2058 cells): induced apoptosis
- IC50 (melanoma SK-MEL-28 cells): 3 µM
- IC50 [15]: 2.9 µM

- IC50 [5]: 19.6 µM
- IC50 ([3]; Homo sapiens, K562/Adr, 48 h): 8.9 µM
- IC50 (cancer cell lines): > 20 µM
- IC50 ([1]; Homo sapiens, DU-145, 48 h): > 20 µM
- IC50 ([2]; Homo sapiens): > 20 µM
Compound: COc1cc2c3cc1Oc1c(OC)c(OC)cc4c1[C@@H](Cc1ccc(O)c(c1)Oc1ccc(cc1)C[C@@H]3N(C)CC2)N(C)CC4 [Berbamine]
- IC50 ([4]; Homo sapiens, 48 h): 24 µM

- IC50 [1]: 7.9 µM
- IC50 [2]: 3.9 µM
Compound: COc1cc2c3cc1Oc1c(OC)c(OC)cc4c1[C@@H](Cc1ccc(OCCCNC(=O)c5cncs5)c(c1)Oc1ccc(cc1)C[C@@H]3N(C)CC2)N(C)CC4 [BA #5]

- IC50 [1]: 6.9 µM
- IC50 [2]: 3.5 µM
Compound: COc1cc2c3cc1Oc1c(OC)c(OC)cc4c1[C@@H](Cc1ccc(OCCCNC(=O)c5cncs5)c(c1)Oc1ccc(cc1)C[C@@H]3N(C)CC2)N(C)CC4 [BA #7]

- IC50 [1]: 3.5 µM
- IC50 [2]: 3.4 µM
Compound: COc1cc2c3cc1Oc1c(OC)c(OC)cc4c1[C@@H](Cc1ccc(OCCCNC(=O)c5cncs5)c(c1)Oc1ccc(cc1)C[C@@H]3N(C)CC2)N(C)CC4 [BA #6]
